The values that follow come from US20030130280A1, “Treatment of acute myeloid leukemia with indolinone compounds” (SUGEN, Inc., priority 2001, published 2003).

The test system of one assay is erk½. In words: erk½ phosphorylation in OC1-AML5 cells. In kind it is cell-based. The source says:
(§1) Activation of downstream pathways by FLT-3 ligand was also investigated, specifically for Stat5 and erk. Stat5 and Erk are downstream mediators of RTK signaling, and may provide readouts for FLT-3 signaling. Stat 5 is a transcription factor which regulates many genes involves in cell survival and proliferation. Erk½ are kinases on the Raf signaling pathway.

Assay [1] has as its system RS411 (wild type FLT-3). Kind of assay: Apoptosis by PARP cleavage and caspase 3 staining, wild type cells. In kind it is cell-based. The following applies: PARP cleavage, caspase 3 staining. How it is done: (§2) Apoptosis was measured by analysis of PARP cleavage and by caspase 3 staining.
Another assay has as its system OC1-AML5 cell line. In words: Cell viability (trypan blue) and proliferation (alamar blue) with FLT-3 ligand. In kind it is cell-based. Particulars: trypan blue and alamar blue assays. The text has this: The first cell line used was the OC1-AML5 cell line known to express the FLT-3 tyrosine kinase. This cell line was maintained in conventional medium containing cytokines to maintain growth in liquid culture. This cell line provides a model to assess activation and inhibition of FLT-3 signaling by FLT-3 ligand and compounds which may inhibit FLT-3. The biological consequences of FLT-3 can be assessed with this cell line.
The OC1-AML5 cell line which express FLT-3-wild type was obtained (Pharmacia).
On the technique in general: Alamar Blue is a resazurin reagent that responds to reducing activity.

A further assay relates to RS4; 11. In words: VEGF production, RS4;11 cells. Particulars: for VEGF %: 0 uM = 100. It counts as cell-based.
The target of another assay is T1, Wild-type FLT-3 (Homo sapiens, UniProt P36888).
T1 construct: host or cells: RS411 (RS4;11)
T1 sequence (P36888 27-993): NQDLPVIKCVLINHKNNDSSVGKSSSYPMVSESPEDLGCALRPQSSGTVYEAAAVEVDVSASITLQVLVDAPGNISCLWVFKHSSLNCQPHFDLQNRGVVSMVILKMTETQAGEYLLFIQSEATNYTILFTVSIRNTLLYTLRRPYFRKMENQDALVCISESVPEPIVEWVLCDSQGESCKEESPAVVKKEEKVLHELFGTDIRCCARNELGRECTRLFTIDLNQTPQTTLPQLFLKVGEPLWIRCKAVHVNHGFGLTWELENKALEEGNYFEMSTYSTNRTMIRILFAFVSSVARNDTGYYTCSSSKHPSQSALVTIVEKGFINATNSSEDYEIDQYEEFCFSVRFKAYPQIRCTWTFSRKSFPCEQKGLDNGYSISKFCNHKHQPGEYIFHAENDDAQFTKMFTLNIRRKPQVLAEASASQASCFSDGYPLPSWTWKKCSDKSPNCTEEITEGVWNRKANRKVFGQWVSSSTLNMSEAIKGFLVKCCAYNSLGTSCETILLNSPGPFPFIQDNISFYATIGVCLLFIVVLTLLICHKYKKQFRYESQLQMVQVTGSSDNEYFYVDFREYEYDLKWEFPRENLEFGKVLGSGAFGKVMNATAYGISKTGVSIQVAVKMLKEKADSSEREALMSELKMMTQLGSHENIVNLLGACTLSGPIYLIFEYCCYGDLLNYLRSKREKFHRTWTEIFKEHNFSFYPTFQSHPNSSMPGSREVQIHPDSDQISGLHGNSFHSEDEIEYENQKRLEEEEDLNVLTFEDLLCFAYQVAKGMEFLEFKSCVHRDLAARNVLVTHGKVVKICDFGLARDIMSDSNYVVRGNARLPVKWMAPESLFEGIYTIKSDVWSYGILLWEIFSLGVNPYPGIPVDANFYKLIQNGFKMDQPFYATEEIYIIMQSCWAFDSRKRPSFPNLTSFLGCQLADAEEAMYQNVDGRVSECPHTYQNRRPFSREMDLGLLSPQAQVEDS
In words: FLT-3 phosphorylation by immunoprecipitation/Western in RS411 cells. As to Wild-type FLT-3 (inhibition of phosphorylation): key: +++: very strong inhibition; ++: inhibition; +/−: weak inhibition; −: no inhibition. It counts as cell-based. How it is done:
FLT-3 was immunoprecipitated from lysates with a commercially available antibody. Proteins were separated by SDS-polyacrylamide gel electrophoresis, transferred to membranes analyzed by Western blotting for phosphotyrosine and subsequently for total FLT-3 protein as control. […]
Immunoprecipitation and Western Blot (IP/W) analysis: Cells were lysed in lysis buffer (20 mM Tris, pH 7.5; 137 mM NaCl; 10% glycerol; 1% NP-40; 0.1% SDS; 2 mM EDTA) containing protease and phosphatase inhibitors (50 mM sodium fluoride, 1 mM sodium orthovanadate, 2 mM Pefabloc, […], […], […], 4 mM leupeptin, and 4 mM pepstatin A). Equivalent amounts of protein were separated by SDS-PAGE, then transferred to nitrocellulose membranes. For analysis of FLT3 phosphorylation, equivalent amounts of protein from each sample were immunoprecipitated overnight at 4*C. with an agarose-conjugated anti-FLT3 antibody (Santa Cruz Biotechnology, Santa Cruz, Calif.). Immune complexes were washed (150 mM NaCl, 1.5 mM MgCl2, 50 mM HEPES, pH 7.5, 10% glycerol, 0.1% Triton X-100, and 1 mM EGTA) and following SDS-PAGE, proteins were transferred to nitrocellulose membranes. Membranes were probed with an anti-phosphotyrosine antibody (Upstate, Lake Placid, N.Y. or Transduction Laboratories, Lexington, Ky.) and then stripped with Restore Western Blot Stripping Buffer (Pierce, Rockford, Ill.). Membranes were reprobed with an anti-FLT3 antibody (Santa Cruz Biotechnology). Stat5 antibodies for immunprecipitation and Western blot analysis were from Upstate Biotechnology and Transduction labs respectively.

Assay [2] has as its system MV411 (ITD mutant FLT-3). In words: Apoptosis by PARP cleavage and caspase 3 staining, ITD-mutant cells. In kind it is cell-based. The following applies: PARP cleavage, caspase 3 staining. How it is done:
as §2

Assay [3] has as its system MV411 (ITD mutant FLT-3). In words: Cell proliferation, MV411. In kind it is cell-based.
Another assay deals with FLT-3-ITD. Kind of assay: FLT-3 phosphorylation in resected xenograft tumors. It counts as in vivo, athymic mice. The following applies: 4 hour treatment. How it is done: Tumor cells, MV411 in the example shown were implanted subcutaneously in the hindflank of athymic mice. […] For measurement of efficacy, tumor growth was measured at various subsequent time points using vernier calipers. For analysis of phosphorylation, tumors were resected following dosing (4 hours here), pulverized in liquid nitrogen and homogenized in lysis buffer. FLT-3 and Stat5 phosphorylation were measured by immunoprecipitation and Western blot analysis.
Athymic mice were injected subcutaneously with MV411 and RS411 cells to cause tumor formation.

The test system of assay [4] is RS411 (wild type FLT-3). In words: Cell proliferation, RS411. In kind it is cell-based.
The next assay relates to Stat5. In words: Stat5 activation by FLT-3 ligand in OC1-AML5 cells (IP/Western, Western, gel shift). It counts as cell-based. Particulars: FLT-3 ligand stimulated.
Excerpt: as §1
Background: A gel shift assay detects complexes by their altered migration in electrophoresis.

“Also recorded” adds a separate entry of the source.

As for `CCN(CC)CCNC(=O)c1c(C)[nH]c(/C=C2\C(=O)Nc3ccc(F)cc32)c1C` [Compound 1, 5-(5-Fluoro-2-oxo-1,2-dihydro-indol-3-ylidenemethyl)-2,4-dimethyl-1H-pyrrole-3-carboxylic acid(2-diethylamino-ethyl)-amide], in the assay with erk½ (IL-3 dependent), the “IL-3 dependent erk activation” value is “not inhibited”. In addition, the “Phosphorylation of erk½” value in the assay on erk½ (activated by FLT-3 ligand) is reported as “inhibited”. The apoptosis result with RS411 (wild type FLT-3) [1] and with MV411 (ITD mutant FLT-3) [2] was “causes apoptosis” in each case. Besides, the “inhibition of FLT-3 ligand increased cell numbers” value in the assay on OC1-AML5 cell line is listed as “some inhibition”. The VEGF mean sd was 32.82 with RS4; 11 (CMPD 1 0.00 uM); 9.62 with RS4; 11 (CMPD 1 0.01 uM); 1.24 in the assay on RS4; 11 (CMPD 1 0.1 uM); 2.3 in the assay with RS4; 11 (CMPD 1 1 uM); 2.94 in the assay on RS4; 11 (CMPD 1 10 uM). The VEGF % in the assay with RS4; 11 (CMPD 1 0.01 uM) amounted to 31.0%; in the assay with RS4; 11 (CMPD 1 0.1 uM), 4.0%; with RS4; 11 (CMPD 1 1 uM), 7.4%; in the assay with RS4; 11 (CMPD 1 10 uM), 9.5%. In addition, the “Wild-type FLT-3 (inhibition of phosphorylation)” value at Wild-type FLT-3 (RS411 cells, IP/Western) is reported as “++”. Also, the “inhibition of wild-type FLT-3 phosphorylation” value at Wild-type FLT-3 (in words) is recorded as “inhibits”. Besides, in the assay with MV411 (ITD mutant FLT-3) [3], the “expansion of MV411” value is “inhibited expansion”. Further, the “activated FLT-3 in tumors” value in the assay on FLT-3-ITD is reported as “completely inhibited; also recorded: inhibits”. Besides, in the assay on RS411 (wild type FLT-3) [4], the “expansion of RS411” value is given as “inhibited expansion”. The Stat5 activity result with Stat5 is reported as “inhibited”.
